Reference: patent US20130116209A1, “METHOD FOR SELECTION OF CHEMOTHERAPEUTIC AGENTS FOR ADENOCARCINOMA CANCER” (VENTANA MEDICAL SYSTEMS, INC., priority 2011, published 2013)

How the values were obtained:
[1] = system: pancreatic adenocarcinoma; test: Retrospective RTOG 9704 study: tumor hENT1 expression (IHC, SP120 antibody) versus overall survival after adjuvant gemcitabine or 5FU; type: in vivo, human; settings: for OS of Low hENT1 subgroup compared to High hENT1 subgroup / OS across High, Mid and No hENT1 subgroups: Method Six; for OS across High, Mid and No hENT1 subgroups: three subgroups (FIG. 2 score sheet), FIGS. 33-34
Procedure: The RTOG 9704 study and its results are further described in Regine, W. F. et al. (2008) JAMA 299(9):1019-1026; Regine, W. F. et al. (2011) Ann. Surg. Oncol. 18:1319-1326.
Formalin-fixed, paraffin-embedded (FFPE) specimens have been retrieved from tissue repositories. The specimens were obtained from patients prior to adjuvant therapy. Tissue was processed into tissue microarrays (TMA) at the RTOG Biospecimen Resource center and IHC staining was performed in a central laboratory (Ventana Medical Systems). Stained slides were interpreted by pathologists blind to study outcomes.
Samples have been centralized within the RTOG Biospecimen Resource facility. Tissue micro arrays (TMA) were also constructed in the RTOG Biospecimen Resource facility. Three cores from each tumor specimen were arrayed on three separate TMAs. A total of 220 cases were arrayed on the TMAs.
Slides from TMAs were prepared and forwarded to the core pathology laboratory (Ventana Medical Systems), and stained by SP120 rabbit monoclonal antibody for detection of hENT1 protein according to established methods. The following parameters were recorded for each specimen based on scoring by a pathologist blinded to the patient's clinical characteristics and outcome: • Intensity of staining (e.g. 0=no stain, 1+=weakly positive, 2+=moderately positive, 3+=strongly positive) • Percentage of tumor cells with staining at each intensity level (% of tumor tissue specifically excluding non-malignant cells/regions) • Pattern of staining (segmented or diffuse) • Cellular compartment (membrane or cytoplasm).

[2] = system: pancreatic cancer; settings: Stage III/IV disease, gemcitabine monotherapy, unresectable pancreatic cancer; cited from earlier work
[3] = FIG. 3 algorithm (50% of tumor with membrane staining at 10×), FIGS. 4-5
[4] = FIG. 6 algorithm (PP at 2×, 4×, 10× and negative tumor <=50%), FIGS. 7-8

SMILES	median OS as hENT1 expression increases from No to Low to High ([1]; Method Five (percent negative staining), FIG. 18)	median OS as hENT1 expression increases from Negative to Weak to Moderate to Strong ([1]; Method Four (staining intensity), FIG. 30)	median OS as hENT1 expression (H-score subgroup) increases ([1]; Method One (H-score), FIG. 22)	OS of Low hENT1 subgroup compared to High hENT1 subgroup [1, 3]	OS of Low hENT1 subgroup compared to High hENT1 subgroup [1, 4]	OS across High, Mid and No hENT1 subgroups [1]	median OS as hENT1 expression increases from Negative to Segmental to Diffuse ([1]; Method Three (staining pattern), FIG. 26)	median OS [2]	OS of No hENT1 subgroup compared to Low and High hENT1 subgroups ([1]; Method Five, FIG. 19)	OS of combined Low and High hENT1 subgroup compared to No hENT1 subgroup ([1]; Method Five, FIG. 20)	OS of negative hENT1 subgroup compared to Weak, Moderate or Strong subgroups ([1]; Method Four, FIG. 31)	OS of H-score<=20 subgroup compared to H-score 20-80 and >=80 subgroups ([1]; Method One, FIG. 23)	OS of H-score>=50 patients compared to H-score <50 patients ([1]; Method One, FIG. 24)	OS of negative hENT1 subgroup compared to Segmental or Diffuse subgroups ([1]; Method Three, FIG. 27)	OS of patients with detectable hENT1 (S or D) compared to no hENT1 expression ([1]; Method Three, FIG. 28)	OS of subgroup N, 20× or 40× compared to subgroup PP at 2×, 4× or 10× ([1]; Method Two (magnification), FIGS. 15-16)
O=c1[nH]cc(F)c(=O)[nH]1 [5FU, 5-Fluorouracil]	do not demonstrate an improvement in OS	do not demonstrate an improvement in OS	do not demonstrate an improvement in OS	do not demonstrate improvement in OS	do not demonstrate improvement in OS	do not demonstrate improvement in OS	do not demonstrate an improvement in OS	–	–	–	–	–	–	–	–	–
Nc1ccn([C@@H]2O[C@H](CO)[C@@H](O)C2(F)F)c(=O)n1 [gemcitabine]	–	–	–	shorter OS	shorter OS	No hENT1 expression exhibited the shortest OS followed by the Mid hENT1 subgroup and the High hENT1 subgroup had the longest OS	–	5-7 months	shorter OS	longer OS	shorter OS	shorter OS	longer OS	shorter OS	longer OS	shorter OS
